Here are results for 2 molecules from publication PMC4760274, “Elongation factor 2 kinase promotes cell survival by inhibiting protein synthesis without inducing autophagy” (Cellular Signalling, 2016).

Assay [1] concerns autolysosome formation in A549 cells. Nature of the assay: autophagic flux analysis with mCherry-EGFP-LC3B in A549 cells. To be noted: AZD8055 1 μM, after release from BafA1, Fig. 2C, D. In kind it is cell-based, human. Here is the method:
A549 cells were transfected with a vector encoding mCherry-EGFP-LC3B, a tandem fluorescent-tagged LC3 (a kind gift from Dr. Terje Johansen, Biochemistry Department, Institute of Medical Biology, University of Tromsø, Norway), using lipofectamine 3000 (L3000001, Life technologies) following manufacturer's instructions. After treatment cells were washed twice in phosphate buffered saline (PBS, 18912-014, Gibco) and then fixed in 4% formaldehyde (F8775, Sigma-Aldrich) for 15 min. Fixed cells were washed thrice in PBS and permeabilized with 0.1% Triton-X 100 for 5 min. Cells were then again washed thrice in PBS and mounted in ProLong® Gold Antifade Mountant (P36935, Life technologies). Cells were visualized using Leica TCS SP8X/MP microscope equipped with a tuneable white light laser using a 40 × oil immersion objective lens (NA = 1.30) numerical aperture objective. Green/red fluorescence ratio (GFP loss upon autolysosome formation) was measured using the Leica Application Suite X (LAS X) software (version 1.1.0).
We also examined the progression of autolysosome formation using a tandem fluorescently-tagged LC3 (mCherry-EGFP-LC3B) which allowed us to determine autophagosome and lysosome fusion by evaluating loss of GFP fluorescence. Green (GFP) but not red (mCherry) fluorescence is quenched by protonation in response to acidified intra-lysosomal pH upon autolysosome fusion. […]

In the next assay the test system is LC3II in A549 cells. Nature of the assay: LC3 modification in A549 cells (western blot). It counts as cell-based, human. The conditions noted are these: untransfected A549; AZD8055 1 μM; Fig. 2E. Here is the method: (§1) After treatment, cells were lysed in ice-cold lysis buffer containing 1% (v/v) Triton X-100 (215680010, Acros Organics), 50 mM Tris (T6066-1KG, Sigma-Aldrich)–HCl (258148-2.5 L, Sigma-Aldrich) pH 7.4, 50 mM NaCl (BP358-212, Fisher Scientific), 0.2 mM EDTA (BP120-500, Fisher Scientific), 0.2 mM EGTA (E1102, Melford), 50 mM β-glycerophosphate (G9422, Sigma-Aldrich), 1 mM Na3VO4 (S6508, Sigma-Aldrich), 15 mM β-mercaptoethanol (125472500, Acros Organics) and 1 × protease inhibitor cocktail (5056489001, Roche). Lysates were spun at 16,000 × g for 10 min at 4 °C; the supernatants were kept and total protein concentration was quantified by Bradford assay following the manufacturer's instructions.
(§2) These procedures were performed as described previously.
Cells were then treated with 10 mM 2-deoxyglucose (2DG), rapamycin (100 nM), AZD8055 (1 μM) or MG132 (10 μM) for 16 h. Cells were then lysed and samples containing equal amounts of protein were analysed by western blot using the indicated antibodies. Values given below each lane show quantitation of the signal for LC3II, corrected for the actin signal from multiple experiments as in (A) expressed as LC3II normalized to actin, mean ± SEM (control cells without treatment = 1; n = 3). (B) A549 cells were cultured as in (A) to induce eEF2K knockdown. […] (D) Data quantification of C, data are presented as means ± SEM. […]
(In western blotting, separated proteins are transferred to a membrane and probed.)

Assay [2] deals with GST-BHMT cleavage (autophagic flux) in A549 cells. Nature of the assay: GST-BHMT cleavage assay in A549 cells. It counts as cell-based, human. The conditions noted are these: AZD8055 1 μM, 16 h, Fig. 2B.
Protocol: Cells were lysed as above. […] The precipitated GST-BHMT was washed three times in the ice cold lysis buffer. Precipitates were then boiled in SDS-PAGE sample buffer, resolved by SDS-PAGE and analysed by western blotting using anti-GST antibody.
Cells were then treated with 10 mM 2-deoxyglucose (2DG), rapamycin (100 nM), AZD8055 (1 μM) or MG132 (10 μM) for 16 h. Cells were then lysed and samples containing equal amounts of protein were analysed by western blot using the indicated antibodies. […] (B) A549 cells were cultured as in (A) to induce eEF2K knockdown. A549 cells were transiently transfected with the GST-BHMT construct and maintained in full media in the presence or absence of AZD8055 (1 μM) for 16 h, in the presence of leupeptin and E64d. GST-BHMT was precipitated with glutathione agarose from the whole cell extracts (bottom panel). […] (E) Untransfected A549 cells were treated with AZD8055 and BafA1 as described in A, cell lysates were collected at T0, 1 and 3 h for immunoblotting analysis.
The subject of a further assay is P-eEF2 in A549 cells. Nature of the assay: eEF2 phosphorylation in A549 cells (western blot). It counts as cell-based, human. To be noted: 16 h, AZD8055 1 μM. Here is the method:
as §1, §2
Cells were then treated with 10 mM 2-deoxyglucose (2DG), rapamycin (100 nM), AZD8055 (1 μM) or MG132 (10 μM) for 16 h. Cells were then lysed and samples containing equal amounts of protein were analysed by western blot using the indicated antibodies. Values given below each lane show quantitation of the signal for LC3II, corrected for the actin signal from multiple experiments as in (A) expressed as LC3II normalized to actin, mean ± SEM (control cells without treatment = 1; n = 3). (B) A549 cells were cultured as in (A) to induce eEF2K knockdown. A549 cells were transiently transfected with the GST-BHMT construct and maintained in full media in the presence or absence of AZD8055 (1 μM) for 16 h, in the presence of leupeptin and E64d. GST-BHMT was precipitated with glutathione agarose from the whole cell extracts (bottom panel). Values given below show the quantitation of data from multiple experiments as in (B) expressed as the level of BHMT fragment normalized to the control without IPTG, mean ± SEM (control cells without treatment = 1; n = 3). Values given below each lane show quantitation of the signal for P-eEF2, corrected for the eEF2 signal from multiple experiments as in (B) expressed as P-eEF2 normalized to eEF2, mean ± SEM (control cells without treatment = 1; n = 3). (C) Cells were treated as described in Supplemental Fig. S3, visualized by confocal microscopy and the rate of autophagosome–lysosome fusion was measured according to green/red fluorescence ratio which reflect the percentage of unfused LC3. Scale bar = 20 μm. (D) Data quantification of C, data are presented as means ± SEM. (n = 5) ***P < 0.001, obtained by two-way ANOVA (Dunnett's test). (E) Untransfected A549 cells were treated with AZD8055 and BafA1 as described in A, cell lysates were collected at T0, 1 and 3 h for immunoblotting analysis. Values given below each lane show quantitation of the signal for LC3II, corrected for the LC3I signal from multiple experiments as in (E) expressed as LC3II normalized to LC3I, mean ± SEM (control cells without treatment = 1; n = 3).

The subject of a further assay is TSC2−/− MEFs. Nature of the assay: caspase 3/7 assay in TSC2−/− MEFs. It counts as cell-based, mouse. The conditions noted are these: TSC2−/− cells; rapamycin 20 nM; 48 h; Fig. 4B. Here is the method:
Caspase 3/7 assays (G8090, Promega) were performed according to the manufacturer's instructions. Briefly, 10,000 cells/well were plated overnight in a 96-well plate. Cells were treated as described in the figure legends for the indicated time period. To measure caspase 3/7 activity, 50 μL of caspase Glo 3/7 reagent was added to each well for 2 h with constant shaking at room temperature. Luminescence was measured using a BMG Labtech FLUOstar Optimi plate reader. Cytotoxicity was evaluated by CellTox Green® cytotoxicity assay (Promega). Briefly, 10,000 cells/well were plated overnight in a 96-well plate. Cells were treated as described in the figure legends for the indicated time period. Fluorescence was measured at 485–500 nmEx/520–530 nmEm using a BMG Labtech FLUOstar Optimi plate reader.
(§3) Fig. 4 eEF2K aids the survival of TSC2^−/− cells under glucose-starved conditions. […] Cells were then lysed and samples containing equal amounts of protein were analysed by western blot using the indicated antibodies. Values given below each lane show quantitation of the signal for LC3II, corrected for the actin signal or P-eEF2, corrected for the eEF2 signal from multiple experiments as in (A), mean ± SEM (control cells without treatment = 1; n = 3). (B) Cells were treated for 48 h as described in (A), except that they were processed for caspase 3/7 assay. […]

The test system of the next assay is P-eEF2 in TSC2−/− MEFs. The experiment in a line: eEF2 phosphorylation in TSC2−/− MEFs (western blot). It counts as cell-based, mouse. The conditions noted are these: TSC2−/− cells starved of glucose; rapamycin 20 nM; Fig. 4A. Here is the method:
as §1, with “instructions. […]” for “instructions.”
as §3, with “[…] The − signs of the Glucose row are barely visible, so the condition given” for “(B) Cells were treated”, “each lane is my best reading. / Panel A: which number belongs to which lane or group (Con, JAN-613, JAN-384) is judged from horizontal position only.” for “48 h as described in (A), except that they were processed for caspase 3/7 assay.”

[3] abbreviates: 2DG 10 mM, rapamycin 100 nM, MG132 10 μM, Fig. 2A.

`COc1ccc(-c2ccc3c(N4CCOC[C@@H]4C)nc(N4CCOC[C@@H]4C)nc3n2)cc1CO` [AZD8055]: the “green/red ratio (mCherry-EGFP-LC3B) in comparison to control cells” value in assay [1] is listed as “remained low”. The LC3II/I ratio entry in the assay with LC3II in A549 cells is “further increase”. Also, the “cleavage of GST-BHMT” value in assay [2] is “marked increase”. In addition, the “phosphorylation of eEF2” value in the assay with P-eEF2 in A549 cells (setting [3]) was “induced the phosphorylation of eEF2”; in the assay with P-eEF2 in A549 cells (Fig. 2B), “marked increase”.

As to `CO[C@H]1C[C@@H]2CC[C@@H](C)[C@@](O)(O2)C(=O)C(=O)N2CCCC[C@H]2C(=O)O[C@H]([C@H](C)C[C@@H]2CC[C@@H](O)[C@H](OC)C2)CC(=O)[C@H](C)/C=C(\C)[C@@H](O)[C@@H](OC)C(=O)[C@H](C)C[C@H](C)/C=C/C=C/C=C/1C` [rapamycin], in the assay with TSC2−/− MEFs, the “adverse effect of glucose starvation (caspase 3/7 activity) countered” value is on record as “fully” and the “caspase activity in control conditions” value is “decreased”. The “phosphorylation of eEF2” value with P-eEF2 in A549 cells (setting [3]) is recorded as “induced the phosphorylation of eEF2”. Further, the eEF2 phosphorylation entry with P-eEF2 in TSC2−/− MEFs is “large increase”.
